Test [1] has as its system Caco-2 cells. Description: Competition of free Neu5Ac with free Neu5Gc for incorporation into Caco-2 cells. It counts as cell-based, human. To be noted: 3 mM Neu5Gc for 3 days. The procedure:
Neu5Gc and ManNGc Feeding Experiment—Neu5Ac, Neu5Gc or ManNGc were dried, dissolved in the appropriate media supplemented with heat-inactivated human serum, sterilized using a Spin-X® (Corning Inc., Corning, N.Y.) and then added to the cells. The pH of the media containing Sia was adjusted to neutrality using sterilized 1M NaOH before starting the feeding experiment. Cells were cultured in the presence of up to 3 mM free Sia or ManNGc for 1 or 3 days at 37° C. At the end of the feeding, cells were washed with cold PBS, harvested either by scraping or with 2 mM EDTA for fibroblasts, and washed again with cold PBS prior to fractionation.
Fractionation of the Labeled Cells—Washed cell pellets were sonicated into 500 μL of 20 mM sodium phosphate buffer or 20 mM Tris-HCl, pH 7.5, using 4×15 second pulses of a sonicator cell disrupter, model Some Dismembrator (Fisher Scientific, Hampton, N.J.) at a probe setting of 3. The sonicate was centrifuged at 75×g for 15 min., and the pellet obtained consisted primarily of nuclei and unbroken cells. The pellet contained <5% of the incorporated sialic acid as determined using a radioactive tracer (data not shown.) The supernatant was therefore considered as the “total homogenate” fraction. A portion (20%) of the “total homogenate” fraction was taken for protein quantification and Sia analysis by DMB derivatization and HPLC analysis (as discussed below.) The remainder was centrifuged at 100,000×g for 1 h. The resulting pellet, called the “membrane” fraction, was then resuspended by sonication (15 sec.) in 200 μl of sodium acetate buffer, pH 5.5. The 100,000×g supernatant, called the “soluble” fraction was adjusted to 90% ethanol using absolute ice-cold ethanol, and placed overnight at −20° C. The flocculant precipitate, which represents the “soluble protein” fraction, was washed 3 times with 90% ice-cold ethanol and then resuspended in 200 μl of water. The supernatant fluid representing the cytosolic low molecular weight (LMW) fraction was dried and brought up in 100 μL with water prior to Sia analysis. All the Sias in these fractions were released with mild acid hydrolysis if necessary and then analyzed by HPLC after DMB derivatization. Protein quantification was performed on the total homogenate, membrane and soluble protein fractions by using the BCA protein assay kit from Pierce (Rockford, Ill.) In some experiments, the resulting data obtained for the Sia bound to the membrane fraction and to the soluble proteins were pooled and presented here as a High Molecular Weight (HMW) fraction.
Sialic Acid Release, DMB Derivatization and HPLC Analysis—The bound Sias from the total homogenate, membrane and soluble protein fractions were released using 2M acetic acid hydrolysis, 3 h. at 80° C. The released Sias, or free Sias, contained in the soluble LMW fraction were passed through a Microcon® YM-10 filter (Millipore, Bedford, Mass.) prior to DMB derivatization, which was done according to Hara et al., 1989. DMB-Sia derivatives from the different fractions were then analyzed by HPLC using a C18 column (Microsorb Mv-TM 100 A, Varian, Palo Alto, Calif.) Isocratic elution was achieved using 7% methanol, 8% acetonitrile in water during 50 min. at 0.9 ml/min flow. The eluant was monitored by fluorescence.
Quantification of Sias—For all HPLC chromatograms, the quantification of Sias was done by comparison with known quantities of DMB derivatized Neu5Gc and Neu5Ac used as standards and then reported in terms of pmoles of Sia. For total homogenate, membrane and cytosolic protein fractions, this number was expressed per mg of protein. Due to minor sample-to-sample variations in amounts and recoveries, the data in the Figures is presented as percent of Neu5Gc over total Sias, rather than as absolute amounts.

Test [2] has as its system Caco-2 cells. In words: Endocytosis inhibition experiments (Neu5Gc uptake in Caco-2 cells). To be noted: 3 mM Neu5Gc, no inhibitor. Format: cell-based, human. The procedure:
The sonicate was centrifuged at 75×g for 15 min., and the pellet obtained consisted primarily of nuclei and unbroken cells. […] A portion (20%) of the “total homogenate” fraction was taken for protein quantification and Sia analysis by DMB derivatization and HPLC analysis (as discussed below.) The remainder was centrifuged at 100,000×g for 1 h. The resulting pellet, called the “membrane” fraction, was then resuspended by sonication (15 sec.) in 200 μl of sodium acetate buffer, pH 5.5. The 100,000×g supernatant, called the “soluble” fraction was adjusted to 90% ethanol using absolute ice-cold ethanol, and placed overnight at −20° C. The flocculant precipitate, which represents the “soluble protein” fraction, was washed 3 times with 90% ice-cold ethanol and then resuspended in 200 μl of water. The supernatant fluid representing the cytosolic low molecular weight (LMW) fraction was dried and brought up in 100 μL with water prior to Sia analysis. All the Sias in these fractions were released with mild acid hydrolysis if necessary and then analyzed by HPLC after DMB derivatization. Protein quantification was performed on the total homogenate, membrane and soluble protein fractions by using the BCA protein assay kit from Pierce (Rockford, Ill.) In some experiments, the resulting data obtained for the Sia bound to the membrane fraction and to the soluble proteins were pooled and presented here as a High Molecular Weight (HMW) fraction. Sialic Acid Release, DMB Derivatization and HPLC Analysis—The bound Sias from the total homogenate, membrane and soluble protein fractions were released using 2M acetic acid hydrolysis, 3 h. at 80° C. The released Sias, or free Sias, contained in the soluble LMW fraction were passed through a Microcon® YM-10 filter (Millipore, Bedford, Mass.) prior to DMB derivatization, which was done according to Hara et al., 1989. […] The eluant was monitored by fluorescence. Quantification of Sias—For all HPLC chromatograms, the quantification of Sias was done by comparison with known quantities of DMB derivatized Neu5Gc and Neu5Ac used as standards and then reported in terms of pmoles of Sia. For total homogenate, membrane and cytosolic protein fractions, this number was expressed per mg of protein. Due to minor sample-to-sample variations in amounts and recoveries, the data in the Figures is presented as percent of Neu5Gc over total Sias, rather than as absolute amounts. Endocytosis Inhibition Experiments—Caco-2 or normal fibroblast cells were split and cultured in alpha-MEM media supplemented respectively with 20% or 15% human serum for 4 days before starting the endocytosis drug inhibition experiments in order to deplete any Neu5Gc derived from FCS. Cells were then pre-treated for 2 h. with the specific inhibitors under the same culture conditions. Fresh media containing the same amount of inhibitor and 3 mM of Neu5Gc was then added to the cells, which were incubated for 16 h or 3 days and finally harvested and fractionated as described above.

A further test relates to chimpanzee lymphoblasts. In words: Neu5Gc/Neu5Ac feeding experiment, chimpanzee EBV-transformed lymphoblasts. It counts as cell-based. To be noted: chimpanzee lymphoblasts fed 3 mM for 3 days. The procedure:
(§1) Cell Culture—Caco-2 cells were propagated in alpha-MEM containing GLUTAMAX™ (Invitrogen, San Diego, Calif.) and a mixture of ribonucleosides and deoxyribonucleosides (Gibco/Invitrogen, San Diego, Calif.) supplemented with 20% FCS. All the fibroblast cell lines and CHO-K1 cells were cultured in the same media supplemented respectively with 15% non-heat inactivated FCS or 10% heat inactivated FCS. Chimpanzee Fred and human […] EBV-transformed lymphoblasts were cultured in RPMI-1640 (Gibco/Invitrogen, San Diego, Calif.) supplemented with 10% heat inactivated FCS or 15% human serum. All of the cultures were maintained at 37° C., 5% CO2 atmosphere. In order to deplete any remaining Neu5Gc from FCS, the cells were split and cultured prior to Neu5Gc feeding experiments for at least 4 days in alpha-MEM supplemented with an adequate percentage of heat-inactivated premium human serum instead of FCS. The cells were then maintained under the same conditions during the whole feeding experiment. The human serum was heat inactivated at 56° C. for 30 min. before use.
Neu5Gc and ManNGc Feeding Experiment—Neu5Ac, Neu5Gc or ManNGc were dried, dissolved in the appropriate media supplemented with heat-inactivated human serum, sterilized using a Spin-X® (Corning Inc., Corning, N.Y.) and then added to the cells. The pH of the media containing Sia was adjusted to neutrality using sterilized 1M NaOH before starting the feeding experiment. Cells were cultured in the presence of up to 3 mM free Sia or ManNGc for 1 or 3 days at 37° C. […]
Fractionation of the Labeled Cells—Washed cell pellets were sonicated into 500 μL of 20 mM sodium phosphate buffer or 20 mM Tris-HCl, pH 7.5, using 4×15 second pulses of a sonicator cell disrupter, model Some Dismembrator (Fisher Scientific, Hampton, N.J.) at a probe setting of 3. […] The pellet contained <5% of the incorporated sialic acid as determined using a radioactive tracer (data not shown.) The supernatant was therefore considered as the “total homogenate” fraction. A portion (20%) of the “total homogenate” fraction was taken for protein quantification and Sia analysis by DMB derivatization and HPLC analysis (as discussed below.) The remainder was centrifuged at 100,000×g for 1 h. […] All the Sias in these fractions were released with mild acid hydrolysis if necessary and then analyzed by HPLC after DMB derivatization. Protein quantification was performed on the total homogenate, membrane and soluble protein fractions by using the BCA protein assay kit from Pierce (Rockford, Ill.) In some experiments, the resulting data obtained for the Sia bound to the membrane fraction and to the soluble proteins were pooled and presented here as a High Molecular Weight (HMW) fraction. […]

The test system of test [3] is Caco-2 cells. In words: Neu5Gc and ManNGc feeding experiment, Caco-2 cells (fractionation, DMB-HPLC). To be noted: Caco-2 cells fed 3 mM for 3 days, grown in human serum. Format: cell-based. The method, then: as §1, with “use. […]” for “use.”
Fractionation of the Labeled Cells—Washed cell pellets were sonicated into 500 μL of 20 mM sodium phosphate buffer or 20 mM Tris-HCl, pH 7.5, using 4×15 second pulses of a sonicator cell disrupter, model Some Dismembrator (Fisher Scientific, Hampton, N.J.) at a probe setting of 3. […] The pellet contained <5% of the incorporated sialic acid as determined using a radioactive tracer (data not shown.) The supernatant was therefore considered as the “total homogenate” fraction. A portion (20%) of the “total homogenate” fraction was taken for protein quantification and Sia analysis by DMB derivatization and HPLC analysis (as discussed below.) The remainder was centrifuged at 100,000×g for 1 h. […] All the Sias in these fractions were released with mild acid hydrolysis if necessary and then analyzed by HPLC after DMB derivatization. […]

As for `O=C(CO)N[C@H]1[C@H]([C@H](O)[C@H](O)CO)OC(O)(C(=O)O)C[C@@H]1O` (stereo partly drawn) [Neu5Gc, N-glycolylneuraminic acid], in the test on Caco-2 cells [1] (no added Neu5Ac), the “Neu5Gc as percent of total Sia, membrane-bound fraction” value was 41%. Also, the “Neu5Gc as percent of total Sia, TH” value in the test with Caco-2 cells [1] (no added Neu5Ac (baseline incorporation)) was found to be 56%. In addition, in the test with Caco-2 cells [2], the “Neu5Gc incorporation into membrane-bound glycoconjugates without inhibitor (percent of total Sia)” value was found to be 45%. Also, the “Neu5Gc as percent of total Sia, TH fraction” value in the test with chimpanzee lymphoblasts (non-fed baseline 57%) is reported as 70%. The “Neu5Gc as percent of total Sia, HMW fraction” value in the test on chimpanzee lymphoblasts (non-fed baseline 66%) worked out at 72%. Besides, in the test with chimpanzee lymphoblasts (non-fed baseline 70%), the “Neu5Gc as percent of total Sia, LMW fraction” value was 84%. In addition, in the test with Caco-2 cells [3], the “Neu5Gc as percent of total Sia, cytosolic low molecular weight (LMW) fraction” value was 70%; the “Neu5Gc as percent of total Sia, high molecular weight fraction (HMW)” value came out at 46%; the “Neu5Gc as percent of total Sia, total homogenate (TH)” value was 58%.

The values above are taken from patent US20080166805A1, “Culturing human cells and tissues in an N-glycolylneuraminic acid-free environment” (The Regents of the University of California, priority 2005, published 2008).
